# Laboratory results reported in the METLIN SMRT retention time set (Domingo-Almenara et al. 2019).
# Test: gradient 5% acetonitrile 3 min, to 50% in 2 min, to 85% in 15 min, held 3 min, 100 µL/min
# Conditions: column: Zorbax Extend-C18 2.1 x 50 mm; eluents: water / acetonitrile, 0.1% formic acid
# How it was run: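 Pure standards were analyzed in mixtures of ~100 molecules using HPLC coupled to a quadrupole time-of-flight mass spectrometer, in both positive and negative ionization mode. Separation used a Zorbax Extend-C18 column (2.1 × 50 mm, 1.8 μm) at 100 μL/min, with water and acetonitrile each containing 0.1% formic acid. Dead and dwell volumes were 40 μL and 900 μL, and data were collected over 3 months. Retention time was read from computationally picked adduct peaks, each inspected manually.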
row,RP-LC retention time,SMILES
1,1090 s,COC(=O)c1ccc2c(=O)n(-c3cccc(Cl)c3)c(N3CCSCC3)nc2c1
2,806 s,O=S(=O)(Nc1cc(-c2ccoc2)no1)c1ccc(F)cc1F
3,1270 s,Cc1csc(-c2csc(S(=O)(=O)N3CCC(Cc4ccccc4)CC3)c2)n1
4,674 s,COc1ccc(-c2c(NC(=O)c3ccco3)n(-c3ccccc3)nc(C)c2=O)cc1
5,1080 s,Cc1cccc(NC(=O)CN2C(=O)C3CCCCN3c3ccc(S(=O)(=O)N4CCCCC4)cc32)c1 (centres undefined)
6,921 s,CCOc1ccc(C2Cn3nnc(-c4nc(-c5ccccn5)no4)c3CO2)cc1 (centres undefined)
7,513 s,CCOC(=O)CNc1ncnc2nc[nH]c12
8,1190 s,CC(C)(C)c1ccc(C(=O)NC2(c3nc(-c4ccncc4)no3)CCCCC2)cc1
9,697 s,CC(C)NC(=O)c1ccc(OCC2CCN(C(=O)C3CCCO3)CC2)cc1 (centres undefined)
10,684 s,Cc1c(CNCc2ccco2)c(C(=O)O)c(C)n1Cc1cccc(F)c1
11,714 s,CC1(O)CCOC2(CCN(Cc3cn[nH]c3-c3ccc(F)cc3)CC2)C1 (centres undefined)
12,1180 s,CC1CCCN(c2nn(CC(=O)Nc3cc(F)cc(F)c3)c(=O)c3ccccc23)C1 (centres undefined)
13,852 s,Cc1ccc(CSc2nnc3c(S(=O)(=O)N4CCCC4)cccn23)cc1
14,958 s,CCn1c(=O)sc2cc(S(=O)(=O)N3CCC(C(=O)N(C)C4CCCCC4)CC3)ccc21
15,920 s,Cc1cccc(NC(=O)C2C(=O)NC3(C)CC2c2ccccc2O3)c1 (centres undefined)
16,916 s,Brc1cn2c(Nc3ccc4c(c3)OCCO4)c(-c3ccccc3)nc2cn1
17,778 s,Cc1nc2cc(N3CC(C(=O)NCc4ccc(OC(C)C)cc4)CC3=O)ccc2o1 (centres undefined)
18,914 s,COc1ccccc1C(=O)Nc1nnc(SCc2nnc(-c3ccccc3)o2)s1
19,895 s,O=C(NCc1ccc(F)cc1F)c1csc(C(=O)NC2CCCC2)n1
20,862 s,O=C(CCn1nnc2cc(-c3noc(COc4ccccc4)n3)ccc21)N1CCCC1
21,630 s,CCC1CN(C(=O)N2CCC(C(=O)NCCN3CCOCC3)CC2)c2ccccc2O1 (centres undefined)
22,641 s,CNc1nc(Nc2ccc(OC)cc2)nc2ccccc12

row,RP-LC retention time,SMILES
1,1320 s,COc1cc2c(cc1CNC(=O)C(=O)c1c[nH]c3ccccc13)OCCCO2
2,681 s,CCn1cc(CN2CCC(N3C(=O)C4(CCCCC4)C3c3ccccc3)CC2)cn1 (centres undefined)
3,837 s,COCc1nnc([C@@H]2CC(F)(F)CN2Cc2ccc(OC)cc2)o1
4,731 s,CCc1nnc2cc(N3CCN(C(=O)c4ccc(C(C)C)cc4)CC3)cnn12
5,780 s,CCCn1ccc2sc(C)c(C(=O)NCc3ccc(OC)c(OC)c3)c2c1=O
6,1190 s,CCc1noc(C2(NC(=O)c3ccc(C(C)(C)C)cc3)CCCCC2)n1
7,574 s,Cc1sc2ccn(CC(C)C)c(=O)c2c1C(=O)NCCN1CCN(C)CC1
8,777 s,O=C(NCCc1c[nH]c2ccccc12)c1ccc(N2C(=O)CCS2(=O)=O)cc1Cl
9,747 s,Cc1ccn2c(Nc3ccc4c(c3)OCO4)c(-c3cc(Br)ccc3F)nc2c1
10,593 s,CN1CCc2nnc(C3CCN(C(=O)Nc4cc(F)cc(F)c4)C3)n2CC1 (centres undefined)
11,781 s,COc1ccc(NS(=O)(=O)c2sc3ccc(Cl)cc3c2C)cc1N1CCNCC1
12,1230 s,CC1Oc2ccc(-c3csc(NC(=O)CCC4CCCCC4)n3)cc2N(C)C1=O (centres undefined)
13,564 s,O=C([C@@H]1C[C@H](Oc2cccnc2)CN1C(=O)c1n[nH]c(=O)c2ccccc12)N1CCCC1
14,960 s,CCc1ccccc1N1C(=O)CN(S(=O)(=O)c2ccccc2)CC1(C)C(=O)NC1CCCC1 (centres undefined)
15,862 s,Cc1ccc(CNC(=O)C2CCN(S(=O)(=O)c3cc(C(=O)N4CCCCCC4)cs3)CC2)o1
16,717 s,CN1CC(=O)N(CC(=O)NC2CCCCCCC2)c2ccccc2C1=O
17,732 s,Cc1nc(N2CCN(c3ccccn3)CC2)nc2c1C(=O)CC(c1cccs1)C2 (centres undefined)
18,924 s,O=C(Cc1csc(NC(=O)Nc2cccc(Cl)c2)n1)Nc1ccccc1
19,1090 s,CCCc1ccc(S(=O)(=O)N2CCc3c(c(-c4nnc(-c5ccccc5)o4)nn3C)C2)cc1
20,593 s,CCn1ccnc1N1CCN(C(=O)COc2ccc(Cl)cc2Cl)CC1
21,1220 s,CCc1nc(-c2cc(S(=O)(=O)N3CCN(c4ccc(F)cc4)CC3)c(C)s2)cs1
22,709 s,COc1ccccc1N(Cc1nc2nc(C)cc(C)n2n1)C(=O)c1ccco1

row,RP-LC retention time,SMILES
1,983 s,CCC(C)c1ccc(NC(=O)C2CCN(C(=O)C(C)(C)C)CC2)cc1 (centres undefined)
2,592 s,CCN1CCN(CCCNC(=O)c2oc3ccc4c(c3c2C)C(O)CC(C)(C)O4)CC1 (centres undefined)
3,666 s,COCCCNC(=O)C1c2ccccc2C(=O)N(C)C1c1ccc(OC)c(OC)c1 (centres undefined)
4,749 s,COc1cc(NC(=O)Cc2csc3nc(-c4ccccc4)cn23)cc(OC)c1OC
5,778 s,COCc1c(C(=O)N2CC(F)(F)C[C@H]2c2nc(C)no2)noc1C
6,694 s,CCC(C(=O)N1CCC(c2cc3n(n2)CCCNC3=O)CC1)c1ccccc1 (centres undefined)
7,674 s,CC1C(=O)NCCN1C(=O)CCSc1ccc(Cl)cc1 (centres undefined)
8,878 s,CC(C)NC(=O)c1c2c(cn(-c3ccccc3)c1=O)C(=O)CC(C)(C)C2
9,792 s,Cc1ccc(-c2cc3c(=O)n(Cc4noc(CN5CCOCC5)n4)ccn3n2)c(C)c1
10,935 s,CCn1nc(C)cc1C(=O)Nc1nc2c(s1)CC(C)CC2 (centres undefined)
11,640 s,CC(C)CN(Cc1cccnc1)C1CN(C(=O)NCc2ccc(F)cc2)C1
12,978 s,CCSc1nnc(-c2nn(C)c3c2CN(S(=O)(=O)c2ccc(F)c(C)c2)CC3)n1CC
13,906 s,Cc1cc(C)cc(NC(=O)CN2C(=O)CSc3ccc(C(=O)N(C)C)cc32)c1
14,853 s,Cc1ccc(CN2CCC(CNC(=O)c3c(C)oc4ncnc(N5CCOCC5)c34)C2)cc1 (centres undefined)
15,997 s,CCc1nc(OCC(=O)Nc2ccc(Cl)c(C(F)(F)F)c2)c2ccccc2n1
16,889 s,CC(C)Cn1cc(CCNC(=O)Nc2ccc(Cl)cc2)c2cccnc21
17,860 s,COc1ccc(CNC(=O)CCc2conc2-c2ccc(F)cc2)cc1
18,933 s,CC1CCN(S(=O)(=O)c2ccc(-c3nnc(C4CC4)o3)o2)CC1
19,846 s,COc1ccc2[nH]cc(CCNC(=O)c3c(-c4ccccn4)noc3C)c2c1
20,769 s,CCN1c2ccccc2C(=O)NC12CCN(C(=O)NCc1ccc(F)cc1)CC2
21,884 s,CCn1nccc1-c1cccc(-c2noc(CNS(=O)(=O)c3ccccc3)n2)c1
22,560 s,Cn1c(CNC(=O)CCC2CCCN(c3cc(NC4CC4)ncn3)C2)nc2ccccc21 (centres undefined)

row,RP-LC retention time,SMILES
1,617 s,O=C(Nc1cccc(C(F)(F)F)c1)NC1CCN(c2cc(N3CCCC3)cnn2)C1 (centres undefined)
2,742 s,CCCC(NC(=O)c1ccc(Cl)cc1)C(=O)Nc1nc2ccccc2[nH]1 (centres undefined)
3,1100 s,Cc1ccccc1CN1C(=O)N(c2ccc(F)cc2)c2ncccc2S1(=O)=O
4,858 s,O=C1OC(C(=O)Nc2ccc(F)cc2)Cc2ccc(Cl)cc21 (centres undefined)
5,970 s,COc1cccc(-c2ccc(=O)n(CCc3nc(-c4cccc(F)c4)no3)n2)c1
6,880 s,O=C(NCCC1=CCCCC1)C1CCN(Cc2cc3ccccc3n2Cc2ccccc2)CC1
7,1030 s,O=C(NCCc1csc(-c2ccc(Cl)cc2)n1)C(=O)Nc1ccc2c(c1)OCCO2
8,963 s,CCCNC(=O)N1CCCC1c1nc(-c2cccc(C(F)(F)F)c2)no1 (centres undefined)
9,814 s,CC1Cc2ccccc2N1C(=O)c1ccc(=O)n(CCC(=O)N2CCCCCC2)n1 (centres undefined)
10,658 s,O=C(Nc1ccc(N2CCOCC2)cc1)c1cccs1
11,593 s,CCCNC(=O)CCc1ccc2nc(-c3ccccc3)[nH]c2c1
12,910 s,CC(C)OC(=O)c1c(-c2ccccc2)c(-c2ccccc2)n[nH]c1=O
13,917 s,COC(=O)C1=C(C)NC2=C(C(=O)c3ccccc32)C1c1cccc(OC)c1 (centres undefined)
14,760 s,O=C(c1nnc(-c2ccc(S(=O)(=O)N3CCCCC3)cc2)o1)N1CCCC1
15,643 s,O=C(CCc1ccccc1)NC1CCN(c2cc(-c3ccccc3)[nH]n2)C1 (centres undefined)
16,849 s,COc1ccc(OC)c(CNC(=O)c2c(N3CCCC3=O)c3cc(OC)ccc3n2C)c1
17,937 s,CCc1nc(OCC(=O)Nc2ccc(Cl)cc2Cl)c2ccccc2n1
18,756 s,CCN1C(=O)c2c(C(=O)NCCc3ccccc3)ncn2CC1(C)C(=O)NC1CCCC1 (centres undefined)
19,791 s,COc1ccc(Cl)cc1S(=O)(=O)N1CCC(OC2CCN(C)CC2)CC1
20,892 s,COc1ccc(-c2nc(-c3cn(Cc4ccccc4)nn3)no2)cc1OC
21,555 s,COc1cccc(C(=O)N2CCc3nc[nH]c3C2)c1OC
22,840 s,CN1C(=O)c2cc(C(=O)NCc3ccc(F)cc3)nn2CC1(C)C(=O)NC1CCCCCC1 (centres undefined)

row,SMILES,RP-LC retention time
1,CCS(=O)(=O)Nc1cccc(C(=C2CCCCC2)c2cnc[nH]2)c1,738 s
